In experiment [1] the target is h2E2 anti-cocaine mAb. The conditions noted are these: intrinsic fluorescence quenching, 20 °C, TBS buffer; cited from earlier work.
The subject of experiment [2] is h2E2 anti-cocaine mAb. In words: Isothermal titration calorimetry. The experiment is classed as binding. The conditions noted are these: ITC, PBS, 20°C, mean ± SD of 4 experiments; for ΔG: calculated as ΔG = ΔH – TΔS; for Kd: reciprocal of fitted K.
Experiment [3] has as its target mAb08 anti-cocaine mAb. The following applies: ITC; cited from earlier work.
For experiment [4], the target named is h2E2 Fc fragment (Homo sapiens, UniProt P01857). In words: ITC of ligand binding to h2E2 Fc fragment. The following applies: PBS pH 7.4, 20°C.

We go through five compounds from article PMC9516381 (Biochemistry and Biophysics Reports, 2022).

Where two headings read alike, the source gives them in different places.

Chain of h2E2 Fc fragment (P01857 1-330 isoform P01857-1): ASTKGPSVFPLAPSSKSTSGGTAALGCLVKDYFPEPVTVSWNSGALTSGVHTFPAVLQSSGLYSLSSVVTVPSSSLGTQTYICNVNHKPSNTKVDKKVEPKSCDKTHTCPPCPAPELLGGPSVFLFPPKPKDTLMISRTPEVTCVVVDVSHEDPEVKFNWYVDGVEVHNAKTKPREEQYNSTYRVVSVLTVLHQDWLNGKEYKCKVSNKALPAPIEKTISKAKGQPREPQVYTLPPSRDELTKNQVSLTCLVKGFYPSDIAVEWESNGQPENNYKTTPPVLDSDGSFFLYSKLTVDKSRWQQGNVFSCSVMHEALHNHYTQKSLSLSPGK

Broadly, the Kd is a measure of binding affinity in units of concentration. Consider `CN1[C@H]2CC[C@@H]1[C@@H](C(=O)O)[C@@H](OC(=O)c1ccccc1)C2` [Benzoylecgonine, benzoylecgonine], for which the Kd in experiment [1] was about 20 nM. Also, in experiment [2], the ΔG is -9.755 ± 0.106 kcal/mol, the “K (association)” value was found to be 1.88e+07 ± 3.26e+06 M⁻¹, the ΔH was -15.44 ± 0.833 kcal/mol and the ΔS was −19.4 ± 2.5 cal/mol/deg. In addition, binding in experiment [2] was characterised by a dissociation constant (Kd) of 54.4 ± 8.77 nM. The ΔH entry in experiment [2] (listed as benzoylecgonine) is reported as “≈ -15,400 cal/mol”.
Consider `COC(=O)[C@H]1[C@@H](OC(=O)c2ccccc2)C[C@@H]2CC[C@H]1N2` [Norcocaine, norcocaine], for which, in experiment [2], the ΔG is -7.85 ± 0.027 kcal/mol, the “K (association)” value worked out at 704500 ± 36098 M⁻¹, the ΔH was -3.064 ± 0.15 kcal/mol and the ΔS worked out at 16.3 ± 0.58 cal/mol/deg. Besides, binding in experiment [2] was characterised by a dissociation constant (Kd) of 1420 ± 72 nM.
For `COC(=O)[C@H]1[C@@H](OC(=O)c2ccccc2)C[C@@H]2CC[C@H]1N2C` [Cocaine, cocaine], the equilibrium dissociation constant (Kd) in experiment [1] is about 4 nM. For the same compound, the dissociation constant (Kd) in experiment [3] was 2.5 nM. Besides, in experiment [2], the ΔG was -10.881 ± 0.187 kcal/mol, the “K (association)” value came to 1.33e+08 ± 4.54e+07 M⁻¹, the ΔH is -15.41 ± 0.368 kcal/mol and the ΔS is −15.4 ± 1.8 cal/mol/deg. Besides, in experiment [2], binding was characterised by a dissociation constant (Kd) of 8.13 ± 2.37 nM. In addition, in experiment [2] (listed as cocaine), the ΔH entry is given as “≈ -15,400 cal/mol” and the Kd is about 8 nM.
On to `CCOC(=O)[C@@H]1C2CCC(C[C@@H]1OC(=O)c1ccccc1)N2C` (stereo partly drawn) [Cocaethylene, cocaethylene], for which, in experiment [1], the Kd was about 1 nM. In experiment [2], the ΔG is -11.152 ± 0.302 kcal/mol, the “K (association)” value was 2.31e+08 ± 1.3e+08 M⁻¹, the ΔH was -13.988 ± 0.279 kcal/mol and the ΔS is −9.67 ± 1.98 cal/mol/deg. The compound further gave a Kd in experiment [2] of 5.29 ± 2.4 nM.
Turning to `COC(=O)[C@@H]1[C@H]2CC[C@@H](C[C@@H]1O)N2C` [Ecgonine Methyl Ester, ecgonine methyl ester], in experiment [4], the “binding to the Fc fragment” value was “no EME binding to the Fc fragment”. In addition, in experiment [2], the ΔG was -6.381 ± 0.247 kcal/mol, the “K (association)” value is 61375 ± 25024 M⁻¹, the ΔH is -2.336 ± 0.452 kcal/mol and the ΔS is reported as 13.80 ± 2.33 cal/mol/deg. The Kd in experiment [2] worked out at 18700 ± 8310 nM.
